Where two headings read alike, the source gives them in different places.
Experiments:
Staphylococcus aureus = assay: AATCC Test Method 100: Assessment of Antibacterial Finishes on Textile Materials (Staphylococcus aureus); type: cell-based, ATCC 6538
Description: (§1) A dry bactericidal wipe comprising was formed using 100% 1.5 denier Visocel® rayon fibers 38-mm in length, available from SNIACE of Torrelavega, Cantabria, Spain. A binder composition containing 5% of an acrylic binder, ST 954, available from Rohm and Hass Chemicals LLC of Charlotte, N.C., U.S.A. and 95% water was applied first using foam application at the first application at a level of about 10.6 grams per square yard, heating using steam or oil heated cans for about 45 seconds at a temperature of about 275° Fahrenheit. A second application of the binder/bactericidal composition containing 5% of the ST 954 acrylic binder, 1% tetradecylbenzyldimethyl ammonium chloride, and 94% water was applied by padding at a level of about 1.2 grams per square yard. The web is then heated in the same manner as above. The wipe has thickness of about 11 mils measured according to ASTM D 1777 and a basis weight of 37.8 g/yd^2, measured according to ASTM D 3776. A sample was prepared for bactericidal testing according to AATCC Test Method 100: Assessment of Antibacterial Finishes on Textile Materials.
(§2) Another aspect of the present invention is the discovery of a new use for a certain bactericidal agent, namely the tetradecylbenzyldimethyl ammonium chloride. As will be appreciated by those skilled in the art, there are various methods to assess the effectiveness of a bactericidal agent. The discovery here is that this particular bactericidal agent provides a greater than 90%, preferably greater than 95%, and more preferably greater than 99% reduction in bacterium, including methicillin resistant Staphylococcus aureus (MRSA or Mursa), Staphylococcus aureus, Klebsiella pneumoniae, or combinations thereof. One method for determining the reduction of such organisms is American Association of Textile Chemists and Colorists (AATCC) Test Method 100, using American Type Culture Collection (ATCC) reference organisms ATCC 33591, methicillin resistant Staphylococcus aureus (MRSA), ATCC 6538, Staphylococcus aureus, and ATCC 4352, Klebsiela pneumoniae. […]

Klebsiella pneumoniae = assay: AATCC Test Method 100: Assessment of Antibacterial Finishes on Textile Materials (Klebsiella pneumoniae); type: cell-based, ATCC 4352
Description: as §1, §2

[1] = test system: methicillin resistant Staphylococcus aureus (MRSA); assay: AATCC Test Method 100: Assessment of Antibacterial Finishes on Textile Materials (MRSA); type: cell-based
Description: as §1, §2

[2] = listed as tetradecyl benzyl dimethyl ammonium chloride
[3] = listed as tetradecyldimethylbenzyl ammonium chloride

## CCCCCCCCCCCCCC[N+](C)(C)Cc1ccccc1.[Cl-] [tetradecylbenzyldimethyl ammonium chloride]
Staphylococcus aureus
  reduction in Staphylococcus aureus bacterium: greater than 90%
Staphylococcus aureus; [2]
  reduction in Staphylococcus aureus bacterium: greater than 90%
Staphylococcus aureus; [3]
  reduction in Staphylococcus aureus bacterium: more than 99%
Klebsiella pneumoniae
  reduction in the Klebsiella pneumoniae bacterium: greater than 90%
Klebsiella pneumoniae; [2]
  reduction in the Klebsiella pneumoniae bacterium: greater than 90%
Klebsiella pneumoniae; [3]
  reduction in the Klebsiella pneumoniae bacterium: more than 99%
[1]
  reduction in methicillin resistant Staphylococcus aureus (MRSA): greater than 90%
[1]; [2]
  reduction in methicillin resistant Staphylococcus aureus (MRSA): greater than 90%
[1]; [3]
  reduction in methicillin resistant Staphylococcus aureus (MRSA): more than 99%
